According to patent publication US4096112A, “2-Phenyl-indole derivative stabilizers for PVC resins” (Labaz, priority 1976, dated 1978):

Columns and labels:
mice [1] = assay: Maximal dose which does not provoke any death (LD0), oral route, mice; type: in vivo; settings: for Toxic symptoms: LD0 test
Procedure: (§1) A gummy suspension of the substance under study was administered by oral route to groups of at least ten mice and the following results were observed: […]

[2] = Static thermostability of the stabilized resin, simplified method (GARDNER sub-scale in polyvinyl chloride sheets)
Procedure: (§2) These studies were performed with five different formulae of vinyl resins (hereinafter referred to as Compounds).
(§3) The different Compounds were mixed and calendered in a mixer of which the cylinders were heated to 160° C. The rigid sheets so obtained were then heated in an oven to a temperature between 180° C and 215° C, until incipient carbonization.
(§4) A stove with rotating drums, ventilated and equipped with a thermostat was used for this operation. In the trials described hereunder, the behaviour of the sheets containing one of the stabilizers to be tested was compared to that of sheets of the same formulae but containing 2-phenylindole as stabilizer.
(2) It is also possible to use a simplified method which is more rapid and with which valid results are also obtained: A reference scale is drawn up with sheets of thermally treated polyvinyl chloride, of which the colorations have been definitely determined in GARDNER degrees as above.
A GARDNER sub-scale is thus obtained in polyvinyl chloride sheets which can be directly compared to the sheets to be tested without using the comparator.

mice [3] = assay: Acute toxicity (LD50), oral route, mice; type: in vivo; settings: LD50 test
Procedure: (§5) The acute toxicity (LD50) of the stabilizers listed below was carried out, by determining the dose of substance which provoked the death of 50% of the treated animals.
as §1

[4] = Acute toxicity (LD50), oral route, mice; type: in vivo; settings: mouse, in vivo, gummy suspension
Procedure: as §5, §1

[5] = Thermostability of the stabilizers: thermogravimetric analysis; type: physicochemical
Procedure: (§6) The thermostability of Stabilizer 2 and that of 2-phenyl-indole were studied by differential thermoanalysis and by thermogravimetric analysis.
This analysis necessitated two series of trials carried out under air and under inert gas (argon) in order to eliminate any possible effect of oxygen. The results obtained were identical.
The temperature increase rate was 80° /hour.
Thermograms were drawn up under air for both 2-phenyl-indole (i) and for Stabilizer 2 (ii) and enabled the following conclusions to be drawn: […]

[6] = Thermostability of the stabilizers: differential thermoanalysis; type: physicochemical; settings: 2° C/minute, 2 mg
Procedure: as §6
Differential thermoanalysis diagrams were drawn up by studying 2 mg samples of material placed in a non-airtight container, the rate of temperature increase being 2° C/minute and sensitivity 4 mcal/sec.
The diagrams were made out for 2-phenyl-indole (i) and Compound 2 (ii) and enabled the following conclusions to be drawn: […]

[7] = Static thermostability of the stabilized resin, GARDNER Scale comparator; settings: 210° C
Procedure: as §2, §3, §4
(1) The coloration of the sheets, of which samples were removed from the stove at fixed intervals, was compared to a standard scale of coloration, known as the GARDNER Scale and expressed in terms of the reference figures of the GARDNER Scale.
Comparisons were made with a GARDNER Scale comparator which contains 18 filters of coloured glass and which offers the possibility of observing by transparency and in a limited field of view both the sheet and the reference filters.

[8] = Sublimation of the stabilizers; type: physicochemical; settings: 120° C, 15 Torr, 150 minutes; for Percentage of sublimated substance: cold wall 13° C, 150 mg
Excerpt: The tendency to sublimate of 2-(3'-methoxy-4'-hydroxy-phenyl)-indole (Stabilizer 2) was compared to that of 2-phenyl-indole.
A sample of the substance to be tested was introduced into a test tube and heated under reduced pressure. The fraction of sublimated substance was recovered on a mobile cold wall.
After a certain period of time, the sublimated substance was weighed and the result expressed as a percentage of the weight of the starting material.
The results obtained can only be of relative value enabling a comparison to be made between two products tested under the same conditions.
Operating conditions (chosen at random)

[9] = type: physicochemical; settings: water; for Extractibility compared with 2-phenyl-indole: aqueous ethanol and heptane
Procedure: The stabilizers according to the invention may be used to stabilize polymers which are intended for the manufacture of packaging and containers for food and drink and it was therefore necessary, in spite of their low toxicity, to determine their extractibility by solvents simulating food and drink. This study was carried out in accordance with the requirements of the Food and Drug Administration (U.S.A). The extractions were performed in semi-rigid bottles, prepared with Compounds Nos. 609 and 676, and with the following solvents: water, an aqueous solution of acetic acid (3%), ethanol-water 50/50, heptane. The ratio of the volume of solvent to the surface of plastic material exposed to extraction was about 1 to 100 ml of solvent, taking into account the geometric characteristics of the bottles. Temperature: 49° C Heating: A thermostated oven for the non-inflammable solvents (water and acetic acid) A thermostated water-bath for the inflammable solvents (alcohol and heptane) Duration of extraction: This is indicated under each result. They are, in each case, intentionally longer than those which would have given stable maximum values. The quantity of stabilizer extracted was determined by colorimetric assay using p-dimethylaminobenzaldehyde, in accordance with the method described in Analytical Chemistry 36, 425-26 (1964). A blank trial was carried out with a Compound of the same formula as Compounds Nos. 609 and 676, but without any stabilizer. A purely negative result was obtained. The amounts of stabilizer assayed are expressed in μg per liter of extraction solvent or, which is the same per 1000 cm^2 of surface submitted to extraction.

c1ccc2[nH]c(-c3ccc4c(c3)OCCO4)cc2c1 [Stabilizer 34, 2-(3',4'-ethylenedioxy-phenyl)-indole]
LD0 (maximal dose which does not provoke any death) (mice [1]): > 3000 mg/kg
Toxic symptoms (mice [1]): none

COc1ccc(-c2cc3ccccc3[nH]2)cc1O [Stabilizer 13, 2-(3'-hydroxy-4'-methoxy-phenyl)-indole]
Static thermostability compared with 2-phenyl-indole ([2]; Compound A, 210° C): clearly superior to 2-phenyl-indole

COc1ccc(-c2cc3ccccc3[nH]2)cc1C(C)C [Stabilizer 15, 2-(3'-isopropyl-4'-methoxy-phenyl)-indole]
Toxic symptoms (mice [3]): none
LD50 [4]: > 3000 mg/kg

COc1cc(-c2cc3ccccc3[nH]2)ccc1O [Stabilizer 2, 2-(3'-methoxy-4'-hydroxy-phenyl)-indole]
Toxic symptoms (mice [3]): none
LD50 [4]: > 2000 mg/kg
Thermostability compared with 2-phenyl-indole ([5]; thermogravimetric analysis and differential thermoanalysis): greater thermostability than 2-phenyl-indole
Loss of water [6]: no loss of water
Static thermostability compared with 2-phenyl-indole ([7]; Compound A): superior to 2-phenylindole
Static thermostability compared with 2-phenyl-indole ([7]; Compound B): superiority of Stabilizer 2 over 2-phenyl-indole is evident after 21 minutes
Sublimation compared with 2-phenyl-indole (ratio) [8]: twenty times less than that of 2-phenyl-indole
Percentage of sublimated substance [8]: 1.2%
Static thermostability compared with 2-phenyl-indole ([2]; Compound C, 210° C): superior as a stabilizer to 2-phenyl-indole
Static thermostability compared with 2-phenyl-indole ([2]; Compound D, 185° C, 0, 10 and 20 minutes): markedly superior to 2-phenyl-indole at 0, 10 and 20 minutes
Extractibility, times less than 2-phenyl-indole [9]: at least 10 times less
Extractibility compared with 2-phenyl-indole [9]: markedly less extractible than 2-phenyl-indole

CCCCCCCCCCCCOc1ccc(-c2cc3ccccc3[nH]2)cc1OC [Stabilizer 24, 2-(3'-methoxy-4'-dodecyloxy-phenyl)-indole]
Extractibility compared with 2-phenyl-indole [9]: markedly less extractible than 2-phenyl-indole

c1ccc2[nH]c(-c3ccc4c(c3)OCO4)cc2c1 [Stabilizer 33, 2-(3',4'-methylenedioxy-phenyl)-indole]
LD0 (maximal dose which does not provoke any death) (mice [1]): > 3000 mg/kg
Toxic symptoms (mice [1]): none

CCCCCCCCCCCCc1cc(-c2cc3ccccc3[nH]2)ccc1OC [Stabilizer 14, 2-(3'-dodecyl-4'-methoxy-phenyl)-indole]
Toxic symptoms (mice [3]): none
LD50 [4]: > 3000 mg/kg
Extractibility compared with 2-phenyl-indole [9]: markedly less extractible than 2-phenyl-indole

COc1cc(OC)cc(-c2cc3ccccc3[nH]2)c1 [Stabilizer 3, 2-(3',5'-dimethyoxy-phenyl)-indole]
Toxic symptoms (mice [3]): none
LD50 [4]: > 2000 mg/kg
Static thermostability compared with 2-phenyl-indole ([2]; Compound A, 210° C): markedly superior to 2-phenyl-indole

c1ccc(-c2cc3ccccc3[nH]2)cc1 [2-phenyl-indole]
Toxic symptoms (mice [3]): none
Residue / decomposition ([5]; under air, 210° C): a yellowish residue was, in fact, obtained at 210 °C which constitutes proof of decomposition
Loss of water [6]: no loss of water at 100 °C
Percentage of sublimated substance [8]: 26.9%

CCCCOc1ccc(-c2cc3ccccc3[nH]2)cc1OC [Stabilizer 25, 2-(3'-methoxy-4'-butyloxy-phenyl)-indole]
LD0 (maximal dose which does not provoke any death) (mice [1]): > 3000 mg/kg
Toxic symptoms (mice [1]): none

COc1cc(-c2cc3ccccc3[nH]2)ccc1OC(C)C [Stabilizer 27, 2-(3'-methoxy-4'-isopropyloxy-phenyl)-indole]
LD0 (maximal dose which does not provoke any death) (mice [1]): > 3000 mg/kg
Toxic symptoms (mice [1]): none

COc1ccc(-c2cc3ccccc3[nH]2)cc1OCc1ccccc1 [Stabilizer 29, 2-(3'-benzyloxy-4'-methoxy-phenyl)indole]
LD0 (maximal dose which does not provoke any death) (mice [1]): > 500 mg/kg
Toxic symptoms (mice [1]): none

CCCCCCCCCCCCOc1ccc(-c2cc3ccccc3[nH]2)cc1C [Stabilizer 30, 2-(3'-methyl-4'-dodecyloxy-phenyl)-indole]
Extractibility compared with 2-phenyl-indole [9]: markedly less extractible than 2-phenyl-indole

CCCCCCCCCCCCc1cc(-c2cc3ccccc3[nH]2)ccc1O [Stabilizer 19, 2-(3'-dodecyl-4'-hydroxy-phenyl)-indole]
Extractibility compared with 2-phenyl-indole [9]: markedly less extractible than 2-phenyl-indole

CCOc1ccc(-c2cc3ccccc3[nH]2)cc1OC [Stabilizer 23, 2-(3'-methoxy-4'-ethoxy-phenyl)-indole]
LD0 (maximal dose which does not provoke any death) (mice [1]): > 500 mg/kg
Toxic symptoms (mice [1]): none

COc1c(C)cc(-c2cc3ccccc3[nH]2)cc1C [Stabilizer 17, 2-(3',5'-dimethyl-4'-methoxy-phenyl)-indole]
LD0 (maximal dose which does not provoke any death) (mice [1]): > 3000 mg/kg
Toxic symptoms (mice [1]): none

COc1cc(-c2cc3ccccc3[nH]2)ccc1OCc1ccccc1 [Stabilizer 31, 2-(3'-methoxy-4'-benzyloxy-phenyl)-indole]
LD0 (maximal dose which does not provoke any death) (mice [1]): > 500 mg/kg
Toxic symptoms (mice [1]): none
